Measured values: US20250326744A1, “PIPERAZINE DERIVATIVE OR SALT THEREOF, AND PHARMACEUTICAL COMPOSITION” (priority 2022, published 2025)
Where a name gives a salt, the structure may show the parent alone.

What was measured:
mexB (PA) strain = assay: Combinational effect with antibacterial agent against Pseudomonas aeruginosa (Test Examples 2 and 4): mexB (PA) strain with LVFX, TC or AZT at 1/4 MIC, EC99; format: cell-based; conditions: for EC99, combinational effect with AZT, mexB (PA) / EC99, combinational effect with LVFX, mexB (PA) / EC99, combinational effect with TC, mexB (PA): mexB (PA) strain, Test Example 4; for EC99, combinational effect with AZT, mexB (PA) / EC99, mexB (PA), AZT: combined with AZT at 1/4 MIC; for EC99, combinational effect with LVFX, mexB (PA) / EC99, mexB (PA), LVFX: combined with LVFX at 1/4 MIC; for EC99, combinational effect with TC, mexB (PA) / EC99, mexB (PA), TC: combined with TC at 1/4 MIC; for EC99, mexB (PA), AZT / EC99, mexB (PA), LVFX / EC99, mexB (PA), TC: Table 52, Test Example 2, 16 to 20 hours culture, OD595
Protocol: (§1) The combinational effect of the test compound with the antibacterial agent against Pseudomonas aeruginosa was evaluated.
For the evaluation of the inhibitory ability against MexAB-OprM, a mutant strain of Pseudomonas aeruginosa in which MexAB-OprM was expressed as a main drug efflux pump (hereinafter, referred to as a “mexB (PA) strain”) was used. LVFX, TC, or AZT was used as the antibacterial agent used in combination.
The mexB (PA) strain is a strain produced by deleting the genes of MexCD-OprJ, MexEF-OprN, and MexXY in the drug efflux pump of Pseudomonas aeruginosa described in FEMS Microbiology Letters, 2001, Vol. 202, pp. 139 to 143. In the mexB (PA) strain, an expression level of MexB as a drug efflux pump is accelerated.
TC is a tetracycline-based antibacterial agent and is a drug that is discharged outside the bacteria by MexB. AZT is a monobactam-based antibacterial agent and is a drug that is discharged outside the bacteria by MexB.
(§2) AMK and GM are aminoglycoside-based antibacterial agents, and are drugs that are not discharged outside the bacteria by MexB but are discharged outside the bacteria by MexY For the culture of each Pseudomonas aeruginosa strain, a 96-well plate (amount of culture medium per well: 100 μL) was used, and cation-adjusted Mueller Hinton broth (CAMHB) was used. The inoculation amount of the bacteria was set to 10^4 to 5 CFU/well.
(§3) The mexB (PA) strain and the S-3769 strain were cultured for 16 to 20 hours in a culture medium to which each antibacterial agent and test compounds at various concentrations (0 to 800 μM) were added, and the proliferation of the bacterial strains was evaluated by optical turbidity at 595 nm (OD595). The concentration of the antibacterial agent in the culture medium was set to ¼ MIC.
(§4) The proliferation of bacteria in a case where the test compound and the antibacterial agent were not added was measured, and compared with the proliferation of bacteria in a case where the test compound in a case where the antibacterial agent was added at the concentration of ¼ MIC was contained, and the lowest concentration of the test compound at which the proliferation was inhibited by 99% or more was defined as the drug efflux pump inhibitory ability of the test compound as 99% inhibitory effect concentration (EC99).
(§5) The effect of suppressing the proliferation of each test compound in combination with an antibacterial agent at ¼ MIC for mexB (PA) or the S-3769 strain was evaluated as follows according to the value of EC99. • S: EC99≤12.5 μM • A: 12.5 μM<EC99≤25 μM • B: 25 μM<EC99≤100 μM • C: 100 μM<EC99
(§6) The combinational effect of the test compound with the antibacterial agent against Pseudomonas aeruginosa was evaluated in the same manner as in Test Example 2.

S-3769 strain = assay: Combinational effect with antibacterial agent against Pseudomonas aeruginosa (Test Examples 2 and 4): S-3769 strain with AMK or GM at 1/4 MIC, EC99; format: cell-based; conditions: for EC99, combinational effect with AMK, S-3769 strain / EC99, S-3769 strain, AMK: combined with AMK at 1/4 MIC; for EC99, combinational effect with AMK, S-3769 strain / EC99, combinational effect with GM, S-3769 strain: Test Example 4; for EC99, combinational effect with GM, S-3769 strain / EC99, S-3769 strain, GM: combined with GM at 1/4 MIC; for EC99, S-3769 strain, AMK / EC99, S-3769 strain, GM: Table 52, Test Example 2, 16 to 20 hours culture, OD595
Protocol: as §1
The […] was used for evaluating the inhibitory ability against MexXY-OprM. AMK or GM was used as the antibacterial agent used in combination.
The S-3769 strain is a clinically isolated strain collected from a domestic medical institution, and is a strain in which the expression level of MexY is accelerated.
as §2, §3, §4, §5, §6

Row | SMILES | EC99, mexB (PA), AZT (mexB (PA) strain) | EC99, mexB (PA), LVFX (mexB (PA) strain) | further results
1 | CCOc1cccc(F)c1CN1CCN(C(=O)[C@H](N)C2CCN(CCc3cc(Cl)ccc3-c3cc(N)cc(F)c3)CC2)CC1 [Example 558, Hydrobromide of (R)-2-amino-2-(1-(2-(3′-amino-4-chloro-5′-fluoro-[1,1-biphenyl]-2-yl)ethyl)piperidin-4-yl)-1-(4-(2-ethoxy-6-fluorobenzyl)piperazin-1-yl)ethan-1-one] |  |  | EC99, combinational effect with AZT, mexB (PA) (mexB (PA) strain): A (12.5 μM<EC99≤25 μM); EC99, combinational effect with LVFX, mexB (PA) (mexB (PA) strain): S (EC99≤12.5 μM); EC99, combinational effect with TC, mexB (PA) (mexB (PA) strain): A (12.5 μM<EC99≤25 μM); EC99, combinational effect with AMK, S-3769 strain (S-3769 strain): S (EC99≤12.5 μM); EC99, combinational effect with GM, S-3769 strain (S-3769 strain): S (EC99≤12.5 μM)
2 | CCOc1cccc(F)c1CN1CCN(C(=O)[C@H](N)C2CCN(CCc3c[nH]c4ccccc34)CC2)CC1 [Example 148, hydrobromide of (R)-2-(1-(2-(1H-indol-3-yl)ethyl)piperidin-4-yl)-2-amino-1-(4-(2-ethoxy-6-fluorobenzyl)piperazin-1-yl)ethan-1-one] | C (100 μM<EC99) | C (100 μM<EC99) | EC99, mexB (PA), TC (mexB (PA) strain): B (25 μM<EC99≤100 μM); EC99, S-3769 strain, AMK (S-3769 strain): S (EC99≤12.5 μM); EC99, S-3769 strain, GM (S-3769 strain): S (EC99≤12.5 μM)
3 | N[C@@H](C(=O)N1CCN(Cc2scc3c2OCCO3)CC1)C1CCN(CCc2cc(Cl)ccc2-c2ccccc2)CC1 [Example 11, Hydrobromide of (R)-2-amino-2-(1-(2-(4-chloro-[1,1′-biphenyl]-2-yl)ethyl)piperidin-4-yl)-1-(4-((2,3-dihydrothieno[3,4-b][1,4]dioxin-5-yl)methyl)piperazin-1-yl)ethan-1-one] | B (25 μM<EC99≤100 μM) | B (25 μM<EC99≤100 μM) | EC99, mexB (PA), TC (mexB (PA) strain): B (25 μM<EC99≤100 μM); EC99, S-3769 strain, AMK (S-3769 strain): B (25 μM<EC99≤100 μM); EC99, S-3769 strain, GM (S-3769 strain): A (12.5 μM<EC99≤25 μM)
4 | CCOc1cccc(F)c1CN1CCN(C(=O)[C@H](N)C2CCN(CCc3cc(Cl)ccc3-c3cc(O)cc(F)c3)CC2)CC1 [Example 583, Hydrochloride of (R)-2-amino-2-(1-(2-(4-chloro-3′-fluoro-5′-hydroxy-[1,1-biphenyl]-2-yl)ethyl)piperidin-4-yl)-1-(4-(2-ethoxy-6-fluorobenzyl)piperazin-1-yl)ethan-1-one] |  |  | EC99, combinational effect with AZT, mexB (PA) (mexB (PA) strain): A (12.5 μM<EC99≤25 μM); EC99, combinational effect with LVFX, mexB (PA) (mexB (PA) strain): S (EC99≤12.5 μM); EC99, combinational effect with TC, mexB (PA) (mexB (PA) strain): A (12.5 μM<EC99≤25 μM); EC99, combinational effect with AMK, S-3769 strain (S-3769 strain): S (EC99≤12.5 μM); EC99, combinational effect with GM, S-3769 strain (S-3769 strain): S (EC99≤12.5 μM)
5 | COc1ccccc1CN1CCN(C(=O)CN2CCC(N(C)Cc3ccccc3)CC2)CC1 [Example 420, hydrochloride of 2-(4-(benzyl(methyl)amino)piperidin-1-yl)-1-(4-(2-methoxybenzyl)piperazin-1-yl)ethan-1-one] | C (100 μM<EC99) | C (100 μM<EC99) | EC99, mexB (PA), TC (mexB (PA) strain): C (100 μM<EC99)
6 | COc1ccccc1CN1CCN(C(=O)CN2CCN(CCC3CCCCC3)CC2)CC1 [Example 275, 2-(4-(2-Cyclohexylethyl)piperazin-1-yl)-1-(4-(2-methoxybenzyl)piperazin-1-yl) ethan-1-one and hydrochloride thereof] | S (EC99≤12.5 μM) | A (12.5 μM<EC99≤25 μM) | 
7 | COc1ccccc1CN1CCN(C(=O)CN2CCC(C#N)(CCc3ccccc3)CC2)CC1 [Example 401, Hydrochloride of 1-(2-(4-(2-methoxybenzyl)piperazin-1-yl)-2-oxoethyl)-4-phenethylpiperidine-4-carbonitrile] | B (25 μM<EC99≤100 μM) | C (100 μM<EC99) | 
8 | CCOc1cccc(F)c1CN1CCN(C(=O)[C@H](N)C2CCN(CCc3ccccc3)CC2)CC1 [Example 114, Hydrochloride of (R)-2-amino-1-(4-(2-ethoxy-6-fluorobenzyl)piperazin-1-yl)-2-(1-phenethylpiperidin-4-yl)ethan-1-one] | C (100 μM<EC99) | C (100 μM<EC99) | 
9 | COc1ccccc1CN1CCN(C(=O)[C@H](N)C2CCN(CCc3ccc(Cl)s3)CC2)CC1 [Example 134, Hydrochloride of (R)-2-amino-2-(1-(2-(5-chlorothiophen-2-yl)ethyl)piperidin-4-yl)-1-(4-(2-methoxybenzyl)piperazin-1-yl) ethan-1-one] | C (100 μM<EC99) | C (100 μM<EC99) | 
10 | COc1ccsc1CN1CCN(C(=O)CN2CCN(CCc3ccccc3)CC2)CC1 [Example 249, Hydrochloride of 1-(4-((3-methoxythiophen-2-yl)methyl)piperazin-1-yl)-2-(4-phenethylpiperazin-1-yl)ethan-1-one] | C (100 μM<EC99) | C (100 μM<EC99) | 
11 | COc1ccccc1CN1CCN(C(=O)[C@H](N)C2CCN(CCc3cccc(Cl)c3)CC2)CC1 [Example 140, hydrochloride of (R)-2-amino-2-(1-(3-chlorophenethyl)piperidin-4-yl)-1-(4-(2-methoxybenzyl)piperazin-1-yl)ethan-1-one] | C (100 μM<EC99) | C (100 μM<EC99) | 
12 | CCOc1ccccc1CN1CCN(C(=O)CN2CCN(CCc3ccccc3)CC2)CC1 [Example 220, Hydrochloride of 1-(4-(2-ethoxybenzyl)piperazin-1-yl)-2-(4-phenethylpiperazin-1-yl) ethan-1-one] |  | S (EC99≤12.5 μM) | 
13 | O=C(CN1CCN(CCc2ccccc2)CC1)N1CCN(Cc2ccccc2OC(F)F)CC1 [Example 200, hydrochloride of 1-(4-(2-(difluoromethoxy)benzyl)piperazin-1-yl)-2-(4-phenethylpiperazin-1-yl)ethan-1-one] | B (25 μM<EC99≤100 μM) | B (25 μM<EC99≤100 μM) | 
14 | COc1cccc(F)c1CN1CCN(C(=O)CN2CCN(CCc3ccccc3)CC2)CC1 [Example 215, hydrochloride of 1-(4-(2-fluoro-6-methoxybenzyl)piperazin-1-yl)-2-(4-phenethylpiperazin-1-yl)ethan-1-one] | A (12.5 μM<EC99≤25 μM) | S (EC99≤12.5 μM) | 
15 | COc1ccccc1CN1CCN(C(=O)C(C)N2CCN(CCc3ccccc3)CC2)CC1 (centres unmarked) [Example 261, hydrochloride of 1-(4-(2-methoxybenzyl)piperazin-1-yl)-2-(4-phenethylpiperazin-1-yl)propan-1-one] | A (12.5 μM<EC99≤25 μM) | B (25 μM<EC99≤100 μM) | 
16 | COc1ccc(F)c(F)c1CN1CCN(C(=O)CN2CCN(CCc3ccccc3)CC2)CC1 [Example 247, Hydrochloride of 1-(4-(2,3-difluoro-6-methoxybenzyl)piperazin-1-yl)-2-(4-phenethylpiperazin-1-yl)ethan-1-one] | A (12.5 μM<EC99≤25 μM) | B (25 μM<EC99≤100 μM) | 
